# Measured values reported in patent publication US7649002B2, “(3,5-dimethylpiperidin-1yl)(4-phenylpyrrolidin-3-yl)methanone derivatives as MCR4 agonists” (Pfizer Inc, priority 2004, dated 2010).
# pEC50: −log10 of the molar value.
# Target: T1, human MCR1 receptor (Homo sapiens, UniProt Q01726)
# T1 construct: expressed in transfected cells
# Assay: MCR1 standard functional assay (Protocol A): cAMP AlphaScreen in HEK cells
# Type: cell-based
# Conditions: for pEC50: Protocol A
# Description: Stimulation of adenylate cyclase following receptor activation is a widely used measure of functional activity for a number of receptor systems. The functional assay to measure cyclic AMP (cAMP) utilises human embryonic kidney (HEK) cells that stably express the human melanocortin MCR1, MCR3 or MCR4 receptor. Activation of MCR1, MCR3 or MCR4 receptors stimulates adenylate cyclase, generating cAMP, which is measured using AlphaScreen™ (PerkinElmer assay kits.
# The AlphaScreen™ cAMP assay kit consists of ‘donor beads’, ‘acceptor beads’, and biotinylated cAMP which links the different beads together. Excitation of this linked complex at […] in the Fusion™-α microplate analyser results in light emission between […].
# (i) MCR1. MCR3 and MCR4 Standard Functional Assay Methodology [Assay Protocol A, B AND C Respectively]
# Determination of activity against the human MCR1, MCR3 and MCR4 receptor subtypes was carried out for compounds according to the present invention using three immortalised human embryonic kidney (HEK) cell lines that had been biologically engineered to express the human melanocortin MCR1, MCR3 or MCR4 receptor subtypes. These cell lines were engineered using protocols akin to those outlined by Gouarderes et al (Gouarderes, C., (2002) Neuroscience, 115(2); 349-361).
# Such-compound-induced activation of these MCR1, MCR3 or MCR4 receptors lead to the stimulation of the cellular enzyme adenylate cyclase, which in turn lead to the cellular generation, and intra-cellular accumulation, of cyclic adenosine monophosphate (cAMP). […] Intracellular levels of cAMP were quantified using the commercially available AlphaScreen™ assay kits from PerkinElmer. A detailed assay protocol and an explanation of the concept underlying this kit is available through the PerkinElmer website (www.perkinelmer.com). The protocol listed below provides a summary this information.
# The quantity of intracellular cAMP produced by compound-induced activation of the MCR1, MCR3 and MCR4 receptors in these three cell lines was measured using a Fusion™-α microplate analyser set to stimulate at a wavelength of 680 nm and to measure the energy emitted at wave lengths between […]. Compound-induced increases in MCR1, MCR3 or MCR4 receptor activation were subsequently quantified as a decrease in the quantity of light emitted at wavelengths between […]. Data analysis was subsequently performed using a curve-fitting program and the apparent potency of the test compound (expressed as an EC50 and defined as the effective compound concentration that elicited 50% of the maximum compound-induced response) extrapolated from the fitted curve.
# Stimulation buffer (as per AlphaScreen™ protocol): HBSS supplemented with 0.5 mM IBMX, 5 mM HEPES, 0.1% (w/v) BSA and 10 mM MgCl2.
# Lysis buffer (as per AlphaScreen™ protocol): 5 mM HEPES solution supplemented with 0.1% (w/v) BSA and 0.3% (v/v) Tween-20.
# Detection mix (as per AlphaScreen™ protocol): Lysis buffer supplemented with the biotinylated cAMP (10 nM) and Donor beads (10 μg/ml) as supplied in the AlphaScreenT cAMP assay kit.
# For the MCR1, MCR3 and MCR4 standard functional assay methodologies compounds were initially dissolved in DMSO to give a compound concentration of 4 mM and then further diluted for the assay in stimulation buffer to give actual concentrations 2-fold greater than that desired as the final assay concentration.
# The three HEK cell lines, as detailed hereinbefore, expressing the human MCR1, MCR3 or MCR4 receptor subtypes were grown in T225 vent cap flasks containing 50 ml of growth medium (DMEM supplemented with 10% (v/v) FCS, 2 mM L-Glutamine, 25 mM HEPES and 1.0 mg/ml Geneticin) and maintained in a cell incubator at a temperature of 37° C. and in an environment containing 5% CO2. Cells were harvested when they reached 80-90% confluency by first removing the existing growth medium and then washing with PBS that had been pre-warmed to a temperature of 37° C. […]
# T1 sequence (Q01726 whole entry): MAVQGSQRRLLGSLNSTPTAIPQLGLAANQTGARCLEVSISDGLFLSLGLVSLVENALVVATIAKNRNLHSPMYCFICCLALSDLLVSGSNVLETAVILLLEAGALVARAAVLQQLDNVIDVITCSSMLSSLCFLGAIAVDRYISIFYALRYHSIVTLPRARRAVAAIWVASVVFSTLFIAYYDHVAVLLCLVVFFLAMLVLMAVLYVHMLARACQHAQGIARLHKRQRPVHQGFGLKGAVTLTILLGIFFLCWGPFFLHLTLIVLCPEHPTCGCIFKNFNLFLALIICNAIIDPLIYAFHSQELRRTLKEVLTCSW
Structure (SMILES),"Selectivity MCR1/MCR4 (Table 6, MCR4 by Protocol E)",pEC50 (Table 6),"Selectivity MCR1/MCR4 (Table 5, MCR4 by Protocol C)",pEC50 (Table 5)
"C[C@@H]1CN(C(=O)[C@@H]2CN(C(C)(C)C)C[C@H]2c2ccc(F)cc2F)C[C@H](C)[C@@]1(O)c1ccccc1.Cl [Example 5, (3R,4R,5S)-1-{[(3S,4R)-1-tert-Butyl-4-(2,4-difluorophenyl)pyrrolidin-3-yl]carbonyl}-3,5-dimethyl-4-phenylpiperidin-4-ol hydrochloride]",125,5.92,,
"CC(C)N1C[C@@H](C(=O)N2C[C@@H](C)[C@](O)(c3ccccc3)[C@@H](C)C2)[C@H](c2ccc(F)cc2F)C1.Cl [Example 6, (3R,4R,5S)-1-{[(3S,4R)-4-(2,4-Difluorophenyl)-1-isopropylpyrrolidin-3-yl]carbonyl}-3,5-dimethyl-4-phenylpiperidin-4-ol hydrochloride]",28,6.27,,
"C[C@@H]1CN(C(=O)[C@@H]2CN(C(C)(C)C)C[C@H]2c2ccc(F)cc2F)C[C@H](C)[C@@]1(O)c1ccc(Cl)cc1.Cl [Example 13, (3R,4R,5S)-1-{[(3S,4R)-1-tert-butyl-4-(2,4-difluorophenyl)pyrrolidin-3-yl]carbonyl}-4-(4-chlorophenyl)-3,5-dimethylpiperidin-4-ol hydrochloride]",311,5.08,,
"C[C@@H]1CN(C(=O)[C@@H]2CN(c3ccccn3)C[C@H]2c2ccc(F)cc2F)C[C@H](C)[C@@]1(O)c1ccccc1.Cl [Example 31, (3R,4R,5S)-1-{[(3S,4R)-4-(2,4-difluorophenyl)-1-pyridin-2-ylpyrrolidin-3-yl]carbonyl}-3,5-dimethyl-4-phenylpiperidin-4-ol hydrochloride]",2969,4.97,,
"C[C@@H]1CN(C(=O)[C@@H]2CNC[C@H]2c2ccc(F)cc2F)C[C@H](C)[C@@]1(O)c1ccc(F)cc1.Cl [Example 12, (3R,4R,5S)-1-{[(3S,4R)-4-(2,4-difluorophenyl)pyrrolidin-3-yl]carbonyl}-4-(4-fluorophenyl)-3,5-dimethylpiperidin-4-ol hydrochloride]",9,6.18,,
"C[C@@H]1CN(C(=O)[C@@H]2CN(C(C)(C)C)C[C@H]2c2ccc(F)cc2F)C[C@H](C)[C@@]1(O)c1ccccc1 [Example 1, (3R,4R,5S)-1-{[(3S,4R)-1-tert-Butyl-4-(24-difluorophenyl)pyrrolidin-3-yl]carbonyl}-3,5-dimethyl-4-phenylpiperidin-4-ol]",125,,324,5.09
"C[C@@H]1CN(C(=O)[C@@H]2CN(c3cccnn3)C[C@H]2c2ccc(F)cc2F)C[C@H](C)[C@@]1(O)c1ccccc1.Cl [Example 35, (3R,4R,5S)-1-{[(3S,4R)-4-(2,4-difluorophenyl)-1-pyridazin-3-ylpyrrolidin-3-yl]carbonyl}-3,5-dimethyl-4-phenylpiperidin-4-ol hydrochloride]",847,5.90,,
